# Test results as given in patent US7517874B2 (priority 2007, dated 2009).
# Columns and labels:
# [1] = target: human CB1 receptor (hCB1) (Homo sapiens, UniProt P21554); test: cell-based; format: cell-based
# Summary of the method: (§1)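 Agonism or inverse agonism was assessed as change in intracellular cAMP in CHO-K1 cells expressing human CB1 or rat CB2 (genomic DNA, pcDNA3.1).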
# rat CB2 receptor (rCB2) = target: T1, rat CB2 receptor (rCB2) (Rattus norvegicus, UniProt Q9QZN9); test: cell-based; format: cell-based; details: agonist or inverse agonist at rCB2
# T1 sequence (Q9QZN9 1-360): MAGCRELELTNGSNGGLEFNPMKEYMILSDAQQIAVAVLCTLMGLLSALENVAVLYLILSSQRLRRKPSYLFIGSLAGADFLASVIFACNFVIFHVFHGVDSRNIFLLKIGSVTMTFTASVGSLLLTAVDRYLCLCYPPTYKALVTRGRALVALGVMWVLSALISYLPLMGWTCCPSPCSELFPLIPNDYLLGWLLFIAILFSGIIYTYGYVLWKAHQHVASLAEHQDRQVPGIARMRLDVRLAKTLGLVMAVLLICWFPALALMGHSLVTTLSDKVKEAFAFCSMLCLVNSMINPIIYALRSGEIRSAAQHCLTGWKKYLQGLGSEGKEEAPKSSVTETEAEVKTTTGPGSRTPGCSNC
# Summary of the method: as §1
# Male Sprague-Dawley rats = test: Complete Freund's Adjuvant (CFA) model of inflammatory pain, Randall-Selitto paw pressure; format: in vivo; details: rat, intraperitoneal
# Method: Male Sprague-Dawley rats (Hsd:Sprague-Dawley®™SD®™, Harlan, Indianapolis, Ind.) weighing 201±1 grams, were housed three per cage. Animals had free access to food and water and were maintained on a twelve hour light/dark schedule for the entire duration of the experiment. Approximately 12 hours prior to behavioral testing, animals were placed on wire mesh bottom cages with free access to water but no access to food. Test compounds were prepared in 50% PEG-400 (Sigma-Aldrich, cat. P3265). Indomethacin (Fluka, cat 57413) was suspended in 0.5% methylcellulose (Sigma-Aldrich, cat. 274429). Groups of eight animals were anesthetized with 2-3% isoflurane and local inflammation induced by 50 μl CFA (Sigma-Aldrich, cat F5881, Mycobacterium tuberculosis 1 mg/ml) injected subcutaneously into the plantar surface of the left paw.
# Assessment of mechanical hyperalgesia: Baseline and post-treatment withdrawal thresholds to a noxious mechanical stimulus were measured using the Randall-Selitto paw pressure apparatus (Ugo Basile Analgesymeter, model 7200). […] Mechanical hyperalgesia was measured using the Randall-Selitto paw pressure device before CFA injection and after intraperitoneal (i.p.) compound administration over a twenty-four-hour period. The mean and standard error of the mean (SEM) were determined for the injured and normal paws for each treatment group.
# rats = test: Spinal nerve ligation (SNL) model of neuropathic pain; format: in vivo; details: rat, oral 3, 10 and 30 mg/kg, FIG. 4
# Method: The SNL model (Kim and Chung 1992) was used to induce chronic neuropathic pain in rats. The rats were anesthetized with isoflurane, the left L5 transverse process was removed, and the L5 and L6 spinal nerves were tightly ligated with 6-0 silk suture. The wound was then closed with internal sutures and external staples. Following at least seven days post SNL, baseline, post-injury and post-treatment values for non-noxious mechanical sensitivity were evaluated using eight Semmes-Weinstein filaments (Stoelting, Wood Dale, Ill., USA) with varying stiffness (0.4, 0.7, 1.2, 2.0, 3.6, 5.5, 8.5, and 15 g) according to the up-down method (Chaplan et al. 1994). Animals were placed on a perforated metallic platform and allowed to acclimate to their surroundings for a minimum of thirty minutes before testing. The mean and standard error of the mean (SEM) were determined for the injured paw in each treatment group. Since this stimulus is normally not considered painful, significant injury-induced increases in responsiveness in this test are interpreted as a measure of mechanical allodynia. The dose which elicited 50% attenuation of mechanical hypersensitivity (ED50) was determined using linear regression analysis. Results obtained after oral administration of compound 317 at 3, 10 and 30 mg/kg and with compound 366 at 1, 3 and 10 mg/kg are shown in FIG. 4.
# human CB1 receptor (hCB1), sequence (P21554 whole entry): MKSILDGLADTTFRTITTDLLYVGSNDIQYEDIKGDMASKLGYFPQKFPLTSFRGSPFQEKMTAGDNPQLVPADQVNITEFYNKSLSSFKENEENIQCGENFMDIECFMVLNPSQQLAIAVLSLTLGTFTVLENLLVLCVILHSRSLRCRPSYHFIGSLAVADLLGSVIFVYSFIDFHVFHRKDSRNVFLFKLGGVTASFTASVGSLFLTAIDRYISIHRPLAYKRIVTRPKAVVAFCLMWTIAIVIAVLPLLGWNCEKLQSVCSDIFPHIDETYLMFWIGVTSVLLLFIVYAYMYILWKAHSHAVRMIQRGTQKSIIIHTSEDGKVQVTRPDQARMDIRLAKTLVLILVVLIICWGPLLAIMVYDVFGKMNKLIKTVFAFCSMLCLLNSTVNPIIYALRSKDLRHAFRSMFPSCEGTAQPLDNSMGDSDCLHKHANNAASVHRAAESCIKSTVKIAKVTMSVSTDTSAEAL
Compound,EC50 [1],+/− RCB2 (rat CB2 receptor (rCB2)),side effects during the experiment (Male Sprague-Dawley rats),effect in the neuropathic pain model (rats),+/− HCB1 ([1]; agonist or inverse agonist at hCB1)
"CCS(=O)(=O)N1CCn2c(-c3ccccc3)nc(C(=O)N[C@H](C(=O)NC)C(C)(C)C)c2C1 [Compound 91, (S)-N-(3,3-dimethyl-1-(methylamino)-1-oxobutan-2-yl)-7-(ethylsulfonyl)-3-phenyl-5,6,7,8-tetrahydroimidazo[1,5-a]pyrazine-1-carboxamide]",> 10 µM,−,No side effects were observed,,
"CNC(=O)[C@@H](NC(=O)c1nc(-c2ccccc2)n2c1CN(C)CCC2)C(C)(C)C [Compound 317, (S)-N-(3,3-dimethyl-1-(methylamino)-1-oxobutan-2-yl)-8-methyl-3-phenyl-6,7,8,9-tetrahydro-5H-imidazo[1,5-a][1,4]diazepine-1-carboxamide]",> 10 µM,+,,dose response in the neuropathic pain model,
"CNC(=O)[C@@H](NC(=O)c1nc(-c2ccc(Cl)cc2F)n2c1CN(C)CCC2)C(C)(C)C [Compound 366, (S)-3-(4-chloro-2-fluorophenyl)-N-(3,3-dimethyl-1-(methylamino)-1-oxobutan-2-yl)-8-methyl-6,7,8,9-tetrahydro-5H-imidazo[1,5-a][1,4]diazepine-1-carboxamide]",,+,,dose response in the neuropathic pain model,+
